These results are taken from patent US6440974B2, “Compounds useful for inhibition of farnesyl protein transferase” (Schering Corporation, priority 1997, dated 2002).

Data set [1] relates to COS Cell. The experiment in a line: COS Cell IC50 (Cell-Based Assay). Conditions: for pIC50: cell-based assay. As for the experimental part: (§1) FPT IC50 (inhibition of famesyl protein transferase, in vitro enzyme assay) and COS Cell IC50 (Cell-Based Assay) were determined following the assay procedures described in WO 95/10516, published Apr. 20, 1995. GGPIT IC50 (inhibition of geranylgeranyl protein transferase, in vitro enzyme assay), Cell Mat Assay, and anti-tumor activity (in vivo anti-tumor studies) could be determined by the assay procedures described in WO 95/10516. The disclosure of WO 95/10516 is incorporated herein by reference thereto.

The target in data set [2] is farnesyl protein transferase (Homo sapiens, UniProt P49354+P49356). Put plainly: FPT IC50 (inhibition of farnesyl protein transferase, in vitro enzyme assay). Format: biochemical. As for the experimental part: as §1
Data set [3] has as its system Human tumor cells. Put plainly: Soft Agar Assay (anchorage-independent growth). Format: cell-based. The protocol:
Anchorage-independent growth is a characteristic of tumorigenic cell lines. Human tumor cells can be suspended in growth medium containing 0.3% agarose and an indicated concentration of a farnesyl transferase inhibitor. The solution can be overlayed onto growth medium solidified with 0.6% agarose containing the same concentration of farnesyl transferase inhibitor as the top layer. After the top layer is solidified, plates can be incubated for 10-16 days at 37° C. under 5% CO2 to allow colony outgrowth. After incubation, the colonies can be stained by overlaying the agar with a solution of MTT (3-[4,5-dimethylthiazol-2-yl]-2,5-diphenyltetrazolium bromide, Thiazolyl blue) (1 mg/mL in PBS). Colonies can be counted and the IC50's can be determined.

pIC50: −log10 of the molar value.

Take `O=C(C1CC2CCC1CO2)N1CCC(C2c3ncc(Br)cc3CCc3cc(Cl)cc(Br)c32)CC1` (single isomer, unassigned) [Example 29]: the melting point was 152 to 164 °C (dec.). The pIC50 in data set [1] was 7.52. Moreover, in data set [2], the pIC50 was 8.17.

On to `O=C(C1CC2CCC1CO2)N1CCC(C2c3ncc(Br)cc3CCc3cc(Cl)cc(Br)c32)CC1` (single isomer, unassigned) [Example 30], for which the melting point was 151 to 159 °C (dec.). In data set [1], this molecule showed a negative-log IC50 (pIC50) of 7.12. Also, the pIC50 in data set [2] was 8.12.

`O=C(CC1CCOCC1)N1CCC([C@H]2c3ncc(Br)cc3CCc3cc(Cl)cc(Br)c32)CC1` [Example 1] showed a melting point of 83.2 to 88.7 °C.

`O=C(CC1=CCOCC1)N1CCC(C2c3ncc(Br)cc3CCc3cc(Cl)cc(Br)c32)CC1` (centres unmarked) [Example 3] returned a melting point of 110.3 to 113.9 °C. For the same molecule, in data set [2], the pIC50 is 8.21.

Take `O=C(CC1COCCO1)N1CCC(C2c3ncc(Br)cc3CCc3cc(Cl)cc(Br)c32)CC1` (centres unmarked) [Example 6]: the melting point is 111 to 124 °C (dec.). Moreover, in data set [2], the pIC50 is 7.64.

In the case of `O=C(CC1CCCO1)N1CCC(C2c3ncc(Br)cc3CCc3cc(Cl)cc(Br)c32)CC1` (centres unmarked) [Example 7], the melting point was 107 to 115 °C (dec.). This molecule also showed a pIC50 in data set [2] of 7.38.

Regarding `O=C(CC1CCCCO1)N1CCC(C2c3ncc(Br)cc3CCc3cc(Cl)cc(Br)c32)CC1` (centres unmarked) [Example 8], the melting point was 116 to 122 °C (dec.). The molecule further showed a pIC50 in data set [1] (COS) of 7.17. For the same molecule, in data set [2], the pIC50 was 8.70.

In data set [2], `O=C(CC1CCOCC1)N1CCN([C@@H]2c3ccc(Cl)cc3CCc3cc(Br)cnc32)CC1` [Example 33] had a pIC50 of 7.35.

Turning to `O=C(CN1CCOCC1)N1CCC([C@H]2c3ncc(Br)cc3CCc3cc(Cl)cc(Br)c32)CC1` [Example 36], the pIC50 in data set [2] is 8.51.

As for `O=C(CN1CCSCC1)N1CCC([C@H]2c3ncc(Br)cc3CCc3cc(Cl)cc(Br)c32)CC1` [Example 37], the figures for the negative-log IC50 (pIC50) in data set [1] (COS) and in data set [2] were greater than 8.00 and 8.31, respectively.

On to `O=C(CN1CC[S+]([O-])CC1)N1CCN(C2c3ccc(Cl)c(Br)c3CCc3cc(Br)cnc32)CC1` (centres unmarked) [Example 39], for which the results for the pIC50 in data set [1] (COS) and in data set [2] were 7.17 and 8.33, respectively.

On to `O=C(CC1CCOCC1)N1CCC([C@@H]2c3c(Br)cc(Cl)cc3CCc3cc(Br)c[n+]([O-])c32)CC1` [Example 40], for which the melting point is 141 to 151 °C (dec.). For the same molecule, the “COS Cell, percent at given concentration (printed in the COS Cell IC50 column)” value in data set [1] (@ 10 nM) is 100% @ 10. The molecule also gave a pIC50 in data set [3] of 8.10. In data set [2], this molecule gave a pIC50 of 8.66.
